From publication PMC9395446, “First-in-human phase 1/1b study to evaluate sitravatinib in patients with advanced solid tumors” (Investigational New Drugs, 2022)
In brackets after ≈: the same amount, converted by molar mass. Several values for one entry are separate records, joined by “and”; a condition that tells them apart may be missing. Equal values may be shown once. Read-outs that look alike come from different tables or passages of the source.

Experiments:
[1] = Plasma pharmacokinetics after single and multiple oral doses (noncompartmental analysis); format: in vivo, human; conditions: for Cmax / Tmax / AUC / AUC(0-t) / AUC(0-inf) / Vd/F / half-life: human, plasma; for AUC(0-t): read-out: AUClast, geometric mean (CV%); for AUC(0-inf): read-out: AUC∞, geometric mean (CV%); for Vd/F: read-out: Vz/F, geometric mean (CV%)
Experimental: In the PK lead-in period, patients received a single oral dose of sitravatinib (10–200 mg) under fasted conditions with at least 200 mL of water, followed by PK sample collection for 3–7 days, depending on emerging PK information. After the PK lead-in period, patients commenced the daily regimen planned for their cohort. Blood samples were collected pre-dose and 0.5 (for 10 mg only), 1, 2, 4, 6, 8, 12, 24, 36, 48, 72 and 168 (for 20–200 mg dose levels) h post-dose from patients following a single oral dose, and at pre-dose, 0.5, 1, 2, 4, 6, 8, 12 and 24 h post-dose following multiple oral doses for the 10–200 mg levels.
(§1) PK samples were collected after a single dose during the PK lead-in period and following multiple oral doses during the study. Plasma PK samples were assayed for quantification of sitravatinib. The lower limit of quantification was 0.05 ng/mL. PK parameters were determined using a noncompartmental analysis approach including maximum (peak) concentration (Cmax), time to reach Cmax following drug administration (tmax), area under the plasma concentration–time curves (AUCs), apparent total clearance of the drug from plasma after oral administration, apparent volume of distribution during the terminal phase after administration and terminal elimination half-life (t1/2). PD effects were examined by analyzing VEGF-A ligand and soluble (s)-VEGF-R2 levels in patients’ plasma samples collected before and after sitravatinib administration.

VEGF-R2 = assay: Pharmacodynamic plasma markers VEGF-A and s-VEGF-R2, exposure-response analysis; format: in vivo, human
Experimental: as §1

[2] = rat, in vivo, 4 weeks
Experimental: The starting dose of 10 mg QD was selected based on non-clinical, 4-week toxicology studies conducted in rats and dogs. […] The proposed human dose was based on one-tenth of the STD10 in rats corrected for body surface area (mg/m^2).

[3] = 200 mg QD, Cycle 1 Day 15, single patient result

COCCNCc1ccc(-c2cc3nccc(Oc4ccc(NC(=O)C5(C(=O)Nc6ccc(F)cc6)CC5)cc4F)c3s2)nc1 [sitravatinib, Sitravatinib]
CL/F at steady state, geometric mean (CV%) ([1]; 10 mg QD, Cycle 1 Day 8): 42.5 (42.8); 2 L/h
Cav,ss, geometric mean (CV%) ([1]; 10 mg QD, Cycle 1 Day 8): 9.81 (42.8); 2 ng/mL
CL/F at steady state, geometric mean (CV%) ([1]; 20 mg QD, Cycle 1 Day 15): 41.2 (6.4); 3 L/h
Cav,ss, geometric mean (CV%) ([1]; 20 mg QD, Cycle 1 Day 15): 20.2 (6.4); 3 ng/mL
CL/F at steady state, geometric mean (CV%) ([1]; 40 mg QD, Cycle 1 Day 15): 64.6 (156.5); 5 L/h
Cav,ss, geometric mean (CV%) ([1]; 40 mg QD, Cycle 1 Day 15): 25.8 (156.5); 5 ng/mL
CL/F at steady state, geometric mean (CV%) ([1]; 80 mg QD, Cycle 1 Day 15): 65.7 (104.9); 5 L/h
Cav,ss, geometric mean (CV%) ([1]; 80 mg QD, Cycle 1 Day 15): 50.7 (104.9); 5 ng/mL
CL/F at steady state, geometric mean (CV%) ([1]; 110 mg QD, Cycle 1 Day 15): 48.9 (44.5); 3 L/h
Cav,ss, geometric mean (CV%) ([1]; 110 mg QD, Cycle 1 Day 15): 93.7 (44.5); 3 ng/mL
Interpatient variability for Cmax and AUCτ,ss ([1]; 120 mg QD): ~ 60%
CL/F at steady state, geometric mean (CV%) ([1]; 120 mg QD, Cycle 1 Day 15): 75.0 (59.1); 3 L/h
Cav,ss, geometric mean (CV%) ([1]; 120 mg QD, Cycle 1 Day 15): 66.7 (59.1); 3 ng/mL
CL/F at steady state, geometric mean (CV%) ([1]; 150 mg QD, Cycle 1 Day 15): 68.8 (46.5); 18 L/h
Cav,ss, geometric mean (CV%) ([1]; 150 mg QD, Cycle 1 Day 15): 90.9 (46.5); 18 ng/mL
CL/F at steady state [1, 3]: 48.4 (NA); 1 L/h
Cav,ss [1, 3]: 172 (NA); 1 ng/mL
Time by which steady-state appeared to be reached ([1]; QD dosing): cycle 1 day 8
Cmax ([1]; oral, 10 mg, 10 mg QD, Cycle 1 Day 8, read-out: Cmax,ss, geometric mean (CV%)): 11.4 ng/mL
Tmax ([1]; oral, 10 mg, 10 mg QD, Cycle 1 Day 8, read-out: tmax,ss, median (min–max)): 2 h
Cmax ([1]; oral, 10 mg, single dose 10 mg, read-out: Cmax, geometric mean (CV%)): 3.54 ng/mL
Tmax ([1]; oral, 10 mg, single dose 10 mg, read-out: tmax, median (min–max)): 5.03 h
Cmax ([1]; oral, 20 mg, 20 mg QD, Cycle 1 Day 15, read-out: Cmax,ss, geometric mean (CV%)): 23.7 ng/mL
Tmax ([1]; oral, 20 mg, 20 mg QD, Cycle 1 Day 15, read-out: tmax,ss, median (min–max)): 8.13 h
Cmax ([1]; oral, 20 mg, single dose 20 mg, read-out: Cmax, geometric mean (CV%)): 5.71 ng/mL
Tmax ([1]; oral, 20 mg, single dose 20 mg, read-out: tmax, median (min–max)): 8.04 h
Cmax ([1]; oral, 40 mg, 40 mg QD, Cycle 1 Day 15, read-out: Cmax,ss, geometric mean (CV%)): 32.5 ng/mL
Tmax ([1]; oral, 40 mg, 40 mg QD, Cycle 1 Day 15, read-out: tmax,ss, median (min–max)): 4 h
Cmax ([1]; oral, 40 mg, single dose 40 mg, read-out: Cmax, geometric mean (CV%)): 11.8 ng/mL
Tmax ([1]; oral, 40 mg, single dose 40 mg, read-out: tmax, median (min–max)): 4.05 h
Cmax ([1]; oral, 80 mg, 80 mg QD, Cycle 1 Day 15, read-out: Cmax,ss, geometric mean (CV%)): 69.2 ng/mL
Tmax ([1]; oral, 80 mg, 80 mg QD, Cycle 1 Day 15, read-out: tmax,ss, median (min–max)): 4.01 h
Cmax ([1]; oral, 80 mg, single dose 80 mg, read-out: Cmax, geometric mean (CV%)): 31.7 ng/mL
Tmax ([1]; oral, 80 mg, single dose 80 mg, read-out: tmax, median (min–max)): 6 h
Cmax ([1]; oral, 110 mg, 110 mg QD, Cycle 1 Day 15, read-out: Cmax,ss, geometric mean (CV%)): 119 ng/mL
Tmax ([1]; oral, 110 mg, 110 mg QD, Cycle 1 Day 15, read-out: tmax,ss, median (min–max)): 2 h
Cmax ([1]; oral, 110 mg, single dose 110 mg, read-out: Cmax, geometric mean (CV%)): 49.1 ng/mL
Tmax ([1]; oral, 110 mg, single dose 110 mg, read-out: tmax, median (min–max)): 3.02 h
Cmax ([1]; oral, 120 mg, 120 mg QD, Cycle 1 Day 15, read-out: Cmax,ss, geometric mean (CV%)): 80.4 ng/mL
Tmax ([1]; oral, 120 mg, 120 mg QD, Cycle 1 Day 15, read-out: tmax,ss, median (min–max)): 4 h
Cmax ([1]; oral, 120 mg, single dose 120 mg, read-out: Cmax, geometric mean (CV%)): 23.8 ng/mL
Tmax ([1]; oral, 120 mg, single dose 120 mg, read-out: tmax, median (min–max)): 8.87 h
Cmax ([1]; oral, 150 mg, 150 mg QD, Cycle 1 Day 15, read-out: Cmax,ss, geometric mean (CV%)): 114 ng/mL
Tmax ([1]; oral, 150 mg, 150 mg QD, Cycle 1 Day 15, read-out: tmax,ss, median (min–max)): 7.83 h
Cmax ([1]; oral, 150 mg, single dose 150 mg, read-out: Cmax, geometric mean (CV%)): 69.3 ng/mL
Tmax ([1]; oral, 150 mg, single dose 150 mg, read-out: tmax, median (min–max)): 6 h
Cmax ([1]; oral, 200 mg, 200 mg QD, Cycle 1 Day 15, single patient result, read-out: Cmax,ss): 221 ng/mL
Tmax ([1]; oral, 200 mg, 200 mg QD, Cycle 1 Day 15, single patient result, read-out: tmax,ss, median (min–max)): 10 h
Cmax ([1]; oral, 200 mg, single dose 200 mg, read-out: Cmax, geometric mean (CV%)): 85 ng/mL
Tmax ([1]; oral, 200 mg, single dose 200 mg, read-out: tmax, median (min–max)): 5.94 h
AUC ([1]; oral, 10 mg QD, Cycle 1 Day 8, read-out: AUCτ,ss, geometric mean (CV%)): 235 ng·h/mL
AUC ([1]; oral, 20 mg QD, Cycle 1 Day 15, read-out: AUCτ,ss, geometric mean (CV%)): 486 ng·h/mL
AUC ([1]; oral, 40 mg QD, Cycle 1 Day 15, read-out: AUCτ,ss, geometric mean (CV%)): 619 ng·h/mL
AUC ([1]; oral, 80 mg QD, Cycle 1 Day 15, read-out: AUCτ,ss, geometric mean (CV%)): 1220 ng·h/mL
AUC ([1]; oral, 110 mg QD, Cycle 1 Day 15, read-out: AUCτ,ss, geometric mean (CV%)): 2250 ng·h/mL
AUC ([1]; oral, 120 mg QD, Cycle 1 Day 15, read-out: AUCτ,ss, geometric mean (CV%)): 1600 ng·h/mL
AUC ([1]; oral, 150 mg QD, Cycle 1 Day 15, read-out: AUCτ,ss, geometric mean (CV%)): 2180 ng·h/mL
AUC ([1]; oral, 200 mg QD, Cycle 1 Day 15, single patient result, read-out: AUCτ,ss): 4130 ng·h/mL
AUC(0-t) ([1]; oral, single dose 10 mg): 149 ng·h/mL
AUC(0-inf) ([1]; oral, single dose 10 mg): 165 ng·h/mL
Vd/F ([1]; oral, single dose 10 mg): 3720 L
half-life ([1]; oral, single dose 10 mg, read-out: t1/2, arithmetic mean (CV%) (converted)): 43.6 h
AUC(0-t) ([1]; oral, single dose 20 mg): 300 ng·h/mL
AUC(0-inf) ([1]; oral, single dose 20 mg): 501 ng·h/mL
Vd/F ([1]; oral, single dose 20 mg): 2500 L
half-life ([1]; oral, single dose 20 mg, read-out: t1/2, arithmetic mean (CV%) (converted)): 47 h
AUC(0-t) ([1]; oral, single dose 40 mg): 509 ng·h/mL
AUC(0-inf) ([1]; oral, single dose 40 mg): 478 ng·h/mL
Vd/F ([1]; oral, single dose 40 mg): 5610 L
half-life ([1]; oral, single dose 40 mg, read-out: t1/2, arithmetic mean (CV%) (converted)): 46.5 h
AUC(0-t) ([1]; oral, single dose 80 mg): 1430 ng·h/mL
AUC(0-inf) ([1]; oral, single dose 80 mg): 1540 ng·h/mL
Vd/F ([1]; oral, single dose 80 mg): 3360 L
half-life ([1]; oral, single dose 80 mg, read-out: t1/2, arithmetic mean (CV%) (converted)): 46.2 h
AUC(0-t) ([1]; oral, single dose 110 mg): 2030 ng·h/mL
AUC(0-inf) ([1]; oral, single dose 110 mg): 2920 ng·h/mL
Vd/F ([1]; oral, single dose 110 mg): 2410 L
half-life ([1]; oral, single dose 110 mg, read-out: t1/2, arithmetic mean (CV%) (converted)): 44.7 h
AUC(0-t) ([1]; oral, single dose 120 mg): 1210 ng·h/mL
AUC(0-inf) ([1]; oral, single dose 120 mg): 1320 ng·h/mL
Vd/F ([1]; oral, single dose 120 mg): 6370 L
half-life ([1]; oral, single dose 120 mg, read-out: t1/2, arithmetic mean (CV%) (converted)): 49.3 h
AUC(0-t) ([1]; oral, single dose 150 mg): 2940 ng·h/mL
AUC(0-inf) ([1]; oral, single dose 150 mg): 3560 ng·h/mL
Vd/F ([1]; oral, single dose 150 mg): 2510 L
half-life ([1]; oral, single dose 150 mg, read-out: t1/2, arithmetic mean (CV%) (converted)): 42.1 h
AUC(0-t) ([1]; oral, single dose 200 mg): 3300 ng·h/mL
AUC(0-inf) ([1]; oral, single dose 200 mg): 4000 ng·h/mL
Vd/F ([1]; oral, single dose 200 mg): 3660 L
half-life ([1]; oral, single dose 200 mg, read-out: t1/2, arithmetic mean (CV%) (converted)): 51.5 h
Tmax ([1]; po, multiple oral 10–150 mg QD, fasting, read-out: Median tmax,ss, range across dose levels): 2 to 8.13 h
Tmax ([1]; po, single oral 10–200 mg, fasting, read-out: Median tmax, range across dose levels): 3.02 to 8.87 h
half-life ([1]; single oral 10–200 mg, fasting, read-out: Arithmetic mean terminal elimination t1/2, range across dose levels): 42.1 to 51.5 h
AUCτ,ss accumulation ratio, range ([1]; multiple QD doses): 2.13–8.34
Cmax,ss accumulation ratio, range ([1]; multiple QD doses): 1.82–6.89
Dose proportionality of exposure (Cmax and AUCs) ([1]; single and multiple doses 10–200 mg, power model): approximately dose-proportional
CL/F, geometric mean (CV%) ([1]; single dose 10 mg): 60.5 (58.3); 3 L/h
CL/F, geometric mean (CV%) ([1]; single dose 20 mg): 39.9 (63.4); 3 L/h
CL/F, geometric mean (CV%) ([1]; single dose 40 mg): 83.7 (194.6); 4 L/h
CL/F, geometric mean (CV%) ([1]; single dose 80 mg): 52.0 (104.1); 7 L/h
CL/F, geometric mean (CV%) ([1]; single dose 110 mg): 37.6 (61.0); 3 L/h
CL/F, geometric mean (CV%) ([1]; single dose 120 mg): 91.2 (109.5); 4 L/h
CL/F, geometric mean (CV%) ([1]; single dose 150 mg): 42.1 (63.7); 12 L/h
CL/F, geometric mean (CV%) ([1]; single dose 200 mg): 50.0 (126.1); 3 L/h
Peak to trough ratio (PTR) in plasma at steady state ([1]; steady state): 1.5–2.1 fold and 1.5- to 2.1 fold
EC50 (VEGF-R2; Homo sapiens, plasma PD markers, drug target VEGF-R2, read-out: EC50 from exposure-response analysis): 0.0309 µg/mL (≈ 0.0491 µM)
VEGF-A percent change from baseline (increase) (VEGF-R2; plasma, after sitravatinib administration): 200%
Highest dose not exceeding the severely toxic dose in 10% of animals (STD10) [2]: 10 mg/kg
